Test results reported in paper PMC6522524 (Nature Communications, 2019).
Several values for one entry are separate records, joined by “and”; a condition that tells them apart may be missing. Identical values can stand only once. Like-named read-outs stand apart in the source and are kept apart here.

How the values were obtained:
Huh-7 cells = assay: in vitro; format: cell-based, human; conditions: Huh7+HBV 1.2X; With DFO; Concentration 0 μM
Experimental: (§1) Supplementary Fig. 11. Effect of FBS serum iron level on Huh-7, HepG2, and HepG2.2.15 cell
(§2) a Cells were maintained in medium supplemented with 2% FBS or 10% FBS for 1 day and treated with
(§3) After 6 days, cytotoxicity was measured. b Cells were treated with
(§4) the ± SD. *p < 0.05 by unpaired two-tailed Student’s t-test.

HepG2.2.15 cells = conditions: HepG2.2.15; With DFO; Concentration 0 μM
HepG2 cells = assay: in vitro; format: cell-based, human; conditions: HepG2+HBV 1.2X; With DFO; Concentration 0 μM
Experimental: as §1, §2, §3, §4

[1] = tested on: HBV cccDNA in Huh-7-NTCP cells; assay: In vitro HBV infection model, Huh-7-NTCP cells: intracellular cccDNA; conditions: Huh-7-NTCP
Experimental: (§5) HepG2 and Huh-7 cells permanently expressing NTCP were generated by infecting them with an NTCP-encoding recombinant retrovirus and isolating GFP-expressing cells.
(§6) The isolated intracellular HBV DNA was subjected to PCR with an HBV DNA primer and probe set (Supplementary Table 1). cccDNA was isolated by the Hirt extraction method[54]. Briefly, the cells were lysed in SDS lysis buffer (50 mM Tris-HCl, pH 8.0, 10 mM EDTA, 150 mM NaCl, 1% SDS), and the lysates were mixed with KCl to a final concentration of 0.5 M. After incubation at 4 °C for 30 min, each lysate was centrifuged and the supernatant was extracted three times with phenol and once with chloroform. The DNA was then recovered by ethanol precipitation, and treated with T5 nuclease (10 U per μg for 0.5 h, M0363, New England Biolabs), and the enzyme was subsequently heat-denatured at 70 °C. The isolated cccDNA was subjected to PCR with a cccDNA primer and probe set (Supplementary Table 1).
(§7) HepG2-NTCP and Huh-7-NTCP cells were cultured in 12-well plates with the indicated compound(s) for 4 h, after which the cells were infected with HBV particles (10^7 viral genome equivalent per mL, genotype D) and treated with the indicated compound(s) for another 16 h. […]
(§8) Quantitative PCR with an HBV DNA primer and probe set was used to measure intracellular
(§9) cccDNA. The data are expressed as means ± SDs. […]

[2] = tested on: HBV cccDNA in HepG2-NTCP cells; assay: In vitro HBV infection model, HepG2-NTCP cells: intracellular cccDNA; conditions: HepG2-NTCP
Experimental: as §5, §6, §7, §8, §9

[3] = tested on: HBV replicative plasmid pAAV-HBV1.2× in C57BL/6 mice; assay: Hydrodynamic injection mouse model (pAAV-HBV1.2×, C57BL/6 mice); format: in vivo; conditions: for HBsAg, Sample1-5: single samples
[4] = tested on: HBV (genotype D) in PXB mice; conditions: for ALT(ng/mL), Sample1-3 / HBeAg(Signal to control ratio), Sample1-3 / HBsAg(ng/mL), Sample1-3 / Human albumin(g/dL), Sample1-3: individual samples
crystal structure = target: the molecule itself; assay: crystal structure
[5] = 5 mg per kg oral daily, by day 5

CC(=O)N(O)CCCCCNC(=O)CCC(=O)N(O)CCCCCNC(=O)CCC(=O)N(O)CCCCCN [DFO]
Cell viability(%), AVERAGE, DFO alone (Huh-7 cells): 97.5263% | Cell viability(%), AVERAGE, DFO alone (HepG2.2.15 cells): 97.6681% | Cell viability(%), AVERAGE, DFO alone (HepG2 cells): 98.1893%

C[C@H](Cn1cnc2c(N)ncnc21)OCP(=O)(O)O [TDF, tenofovir]
cccDNA levels [1]: reduced cccDNA levels | cccDNA levels [2]: reduced cccDNA levels | HBV core protein levels in the liver [3, 5]: reduced HBV core protein levels in the liver | serum HBV DNA levels [3, 5]: significantly lowered serum HBV DNA levels | HBsAg, AVERAGE ([3]; day 2): 271.658 ng/mL | HBsAg, AVERAGE ([3]; day 3): 286.73 ng/mL | HBsAg, AVERAGE ([3]; day 4): 300.864 ng/mL | HBsAg, AVERAGE ([3]; day 5): 301.678 ng/mL | HBsAg, Sample1-5 ([3]; day 2): 271.684 ng/mL and 284.96 ng/mL and 258.424 ng/mL and 258.29 ng/mL and 284.933 ng/mL | HBsAg, Sample1-5 ([3]; day 3): 286.759 ng/mL and 301.375 ng/mL and 272.159 ng/mL and 272.011 ng/mL and 301.346 ng/mL | HBsAg, Sample1-5 ([3]; day 4): 300.869 ng/mL and 303.445 ng/mL and 298.296 ng/mL and 298.27 ng/mL and 303.44 ng/mL | HBsAg, Sample1-5 ([3]; day 5): 301.701 ng/mL and 312.285 ng/mL and 291.119 ng/mL and 291.012 ng/mL and 312.273 ng/mL | intrahepatic cccDNA ([4]; 5 mg per kg oral daily, by week 5): significantly reduced the amount of intrahepatic cccDNA | HBeAg levels ([4]; 5 mg per kg oral daily, by week 5, compared to control): significantly decreased HBeAg levels | cccDNA, individual samples ([4]; Figure 7g, Sample1-3): 0.17 log copies/cell and 0.21 log copies/cell and 0.12 log copies/cell | cccDNA, AVERAGE ([4]; Figure 7g, average of 3 samples): 0.166 log copies/cell | Serum HBV DNA, AVERAGE ([4]; mouse, in vivo): 4.377 log copies/mL | Serum HBV DNA, individual samples ([4]; mouse, in vivo): 4.385 log copies/mL and 3.759 log copies/mL and 4.998 log copies/mL | Serum ALT levels ([4]; mouse, in vivo, po): decreased | ALT(ng/mL), AVERAGE ([4]; week 0): 115.048 ng/mL | HBeAg(Signal to control ratio), AVERAGE ([4]; week 0): 3.779 Signal to control ratio | HBsAg(ng/mL), AVERAGE ([4]; week 0): 399.9 ng/mL | Human albumin(g/dL), AVERAGE ([4]; week 0): 4.601 g/dL | ALT(ng/mL), Sample1-3 ([4]; week 0): 115.042 ng/mL and 132.129 ng/mL and 97.9737 ng/mL | HBeAg(Signal to control ratio), Sample1-3 ([4]; week 0): 3.7788 Signal to control ratio and 3.545 Signal to control ratio and 4.013 Signal to control ratio | HBsAg(ng/mL), Sample1-3 ([4]; week 0): 400.008 ng/mL and 382.767 ng/mL and 416.907 ng/mL | Human albumin(g/dL), Sample1-3 ([4]; week 0): 4.6008 g/dL and 4.367 g/dL and 4.835 g/dL | ALT(ng/mL), AVERAGE ([4]; week 1): 115.048 ng/mL | HBeAg(Signal to control ratio), AVERAGE ([4]; week 1): 3.705 Signal to control ratio | HBsAg(ng/mL), AVERAGE ([4]; week 1): 397.7 ng/mL | Human albumin(g/dL), AVERAGE ([4]; week 1): 4.701 g/dL | ALT(ng/mL), Sample1-3 ([4]; week 1): 115.042 ng/mL and 132.61 ng/mL and 97.4937 ng/mL | HBeAg(Signal to control ratio), Sample1-3 ([4]; week 1): 3.705 Signal to control ratio and 3.582 Signal to control ratio and 3.828 Signal to control ratio | HBsAg(ng/mL), Sample1-3 ([4]; week 1): 397.708 ng/mL and 379.982 ng/mL and 415.082 ng/mL | Human albumin(g/dL), Sample1-3 ([4]; week 1): 4.7008 g/dL and 4.578 g/dL and 4.824 g/dL | ALT(ng/mL), AVERAGE ([4]; week 2): 67.3429 ng/mL | HBeAg(Signal to control ratio), AVERAGE ([4]; week 2): 3.6862 Signal to control ratio | HBsAg(ng/mL), AVERAGE ([4]; week 2): 390.5 ng/mL | Human albumin(g/dL), AVERAGE ([4]; week 2): 4.6007 g/dL | ALT(ng/mL), Sample1-3 ([4]; week 2): 67.3361 ng/mL and 86.0047 ng/mL and 48.688 ng/mL | HBeAg(Signal to control ratio), Sample1-3 ([4]; week 2): 3.6863 Signal to control ratio and 3.541 Signal to control ratio and 3.831 Signal to control ratio | HBsAg(ng/mL), Sample1-3 ([4]; week 2): 390.508 ng/mL and 371.671 ng/mL and 408.971 ng/mL | Human albumin(g/dL), Sample1-3 ([4]; week 2): 4.6008 g/dL and 4.456 g/dL and 4.746 g/dL | ALT(ng/mL), AVERAGE ([4]; week 3): 35.9023 ng/mL | HBeAg(Signal to control ratio), AVERAGE ([4]; week 3): 3.392 Signal to control ratio | HBsAg(ng/mL), AVERAGE ([4]; week 3): 386.5 ng/mL | Human albumin(g/dL), AVERAGE ([4]; week 3): 4.4 g/dL | HBeAg(Signal to control ratio), Sample1-3 ([4]; week 3): 3.3922 Signal to control ratio and 2.738 Signal to control ratio and 4.046 Signal to control ratio | HBsAg(ng/mL), Sample1-3 ([4]; week 3): 386.508 ng/mL and 366.308 ng/mL and 406.308 ng/mL | Human albumin(g/dL), Sample1-3 ([4]; week 3): 4.4008 g/dL and 3.746 g/dL and 5.054 g/dL | ALT(ng/mL), AVERAGE ([4]; week 4): 31.5198 ng/mL | HBeAg(Signal to control ratio), AVERAGE ([4]; week 4): 3.246 Signal to control ratio | HBsAg(ng/mL), AVERAGE ([4]; week 4): 375.5 ng/mL | Human albumin(g/dL), AVERAGE ([4]; week 4): 4.601 g/dL | HBeAg(Signal to control ratio), Sample1-3 ([4]; week 4): 3.2465 Signal to control ratio and 2.922 Signal to control ratio and 3.57 Signal to control ratio | HBsAg(ng/mL), Sample1-3 ([4]; week 4): 375.508 ng/mL and 355.54 ng/mL and 395.08 ng/mL | Human albumin(g/dL), Sample1-3 ([4]; week 4): 4.6008 g/dL and 4.276 g/dL and 4.924 g/dL | ALT(ng/mL), AVERAGE ([4]; week 5): 19.0197 ng/mL | HBeAg(Signal to control ratio), AVERAGE ([4]; week 5): 3.146 Signal to control ratio | HBsAg(ng/mL), AVERAGE ([4]; week 5): 370.7 ng/mL | Human albumin(g/dL), AVERAGE ([4]; week 5): 4.801 g/dL | HBeAg(Signal to control ratio), Sample1-3 ([4]; week 5): 3.1465 Signal to control ratio and 2.933 Signal to control ratio and 3.359 Signal to control ratio | HBsAg(ng/mL), Sample1-3 ([4]; week 5): 370.708 ng/mL and 351.467 ng/mL and 389.567 ng/mL | Human albumin(g/dL), Sample1-3 ([4]; week 5): 4.8008 g/dL and 4.588 g/dL and 5.014 g/dL

B1: Cp149-Y132A (Y132A mutant of Cp149) (domain or fragment)
chain: MDIDPYKEFGATVELLSFLPSDFFPSVRDLLDTAAALYRDALESPEHCSPHHTALRQAILCWGDLMTLATWVGTNLEDPASRDLVVSYVNTNVGLKFRQLLWFHISCLTFGRETVLEYLVSFGVWIRTPPAARPPNAPILSTLPETTVV
notes: source: E. coli BL21 (DE3), purified (Ni-NTA, thrombin, HiTrap Q anion exchange)
stoichiometry N (crystal structure): 6
